Target: human NAMPT (Homo sapiens (Human), UniProt P43490)
Experiment: NMN fluorescence biochemical assay (human recombinant NAMPT enzyme assay)
Outline: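 NMN formed was detected by fluorescence (Ex/Em 355/460 nm) after acetophenone, KOH and formic acid derivatization. The cell-free reaction ran 60 min at ambient temperature with 6 nM human NAMPT, 150 μM nicotinamide, 20 μM PRPP, 2.5 mM ATP, pH 7.2 HEPES, and compound dose responses.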

Sequence of human NAMPT (P43490 whole entry): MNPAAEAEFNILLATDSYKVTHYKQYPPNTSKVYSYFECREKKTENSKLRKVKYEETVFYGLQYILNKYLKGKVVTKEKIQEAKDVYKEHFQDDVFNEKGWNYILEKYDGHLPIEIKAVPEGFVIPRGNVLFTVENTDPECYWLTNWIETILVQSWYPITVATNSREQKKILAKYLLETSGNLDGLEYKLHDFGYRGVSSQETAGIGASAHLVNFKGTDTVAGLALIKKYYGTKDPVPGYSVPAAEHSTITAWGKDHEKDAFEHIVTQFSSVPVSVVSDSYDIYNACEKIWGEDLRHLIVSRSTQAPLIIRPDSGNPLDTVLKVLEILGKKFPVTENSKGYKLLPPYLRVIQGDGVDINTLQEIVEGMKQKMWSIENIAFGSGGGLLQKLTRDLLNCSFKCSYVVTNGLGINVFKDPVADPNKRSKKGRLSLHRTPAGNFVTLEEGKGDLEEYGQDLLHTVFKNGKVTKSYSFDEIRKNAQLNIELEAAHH

Structure (SMILES) | AC1.4 Human [µM] | EC50 [µM]
CN(Cc1ccc(NC(=O)OCc2ccc(Cl)cc2)cc1)C(=O)c1ccc(C(F)F)nc1 [Compound 298, (4-chlorophenyl)methyl N-[4-({1-[6-(difluoromethyl)pyridin-3-yl]-N-methylformamido}methyl)phenyl]carbamate] | 4.66 | 20.4
O=C1CN(C2COC2)[C@@H](c2ccc(NC(=O)OCc3ccc(Cl)cc3)cc2)CN1 [Compound 346, 4-chlorobenzyl (S)-(4-(1-(oxetan-3-yl)-5-oxopiperazin-2-yl)phenyl)carbamate] | 13.52 | 45.3
O=C(Nc1ccc(CCC2CCN(C(=O)C3COC3)CC2)cc1)OCc1cnco1 [Compound 13, oxazol-5-ylmethyl (4-(2-(1-(oxetane-3-carbonyl)piperidin-4-yl)ethyl)phenyl)carbamate] | 0.22 | 44.7
CN(C)C(=O)N1CCC[C@@H](c2ccc(NC(=O)OCc3cnco3)cc2)C1 [Compound 385, oxazol-5-ylmethyl (S)-(4-(1-(dimethylcarbamoyl)piperidin-3-yl)phenyl)carbamate] | 1.69 | 20.8
C[C@H](NC(=O)c1ccnn1C1CCOCC1)c1ccc(NC(=O)OCc2ccc(Cl)cc2)cc1 [Compound 20, (4-chlorophenyl)methyl N-{4-[(1S)-1-{[2-(oxan-4-yl)pyrazol-3-yl]formamido}ethyl]phenyl}carbamate] | 0.29 | 2.57
Cn1cc(CC(=O)NCc2ccc(NC(=O)OCc3ccc(Cl)cc3)cc2)cn1 [Compound 315, (4-chlorophenyl)methyl N-(4-{[2-(1-methylpyrazol-4-yl)acetamido]methyl}phenyl)carbamate] | 5.91 | 7.32
O=C(Nc1ccc(CNC(=O)c2ccnn2C2CCOCC2)cc1)OCc1ccc(Cl)cc1 [Compound 238, (4-chlorophenyl)methyl N-[4-({[2-(oxan-4-yl)pyrazol-3-yl]formamido}methyl)phenyl]carbamate] | 2.29 | 10.6
COC(=O)N1CCC(Cc2ccc(NC(=O)OCc3cnco3)cc2)CC1 [Compound 11, methyl 4-(4-(((oxazol-5-ylmethoxy)carbonyl)amino)benzyl)piperidine-1-carboxylate] | 0.21 | 22.5
O=C(Nc1ccc(CN2CC3CC3C2=O)cc1)OCc1ccc(Cl)cc1 (stereo not shown) [Compound 180, (4-chlorophenyl)methyl N-[4-({2-oxo-3-azabicyclo[3.1.0]hexan-3-yl}methyl)phenyl]carbamate] | 1.52 | 15.1
CCS(=O)(=O)N1CC2(CC(Cc3ccc(NC(=O)OCc4cnco4)cc3F)C2)C1 [Compound 386, oxazol-5-ylmethyl (4-((2-(ethylsulfonyl)-2-azaspiro[3.3]heptan-6-yl)methyl)-3-fluorophenyl)carbamate] | 0.14 | 14.1
CN1CC(=O)NC[C@@H]1c1ccc(NC(=O)OCc2ccc(Cl)cc2)cc1 [Compound 54, 4-chlorobenzyl (S)-(4-(1-methyl-5-oxopiperazin-2-yl)phenyl)carbamate] | 0.51 | 8.45
CN(C)C(=O)N1C2CCC1CC(Cc1ccc(NC(=O)OCc3cnco3)cc1)C2 (stereo not shown) [Compound 408, oxazol-5-ylmethyl (4-((8-(dimethylcarbamoyl)-8-azabicyclo[3.2.1]octan-3-yl)methyl)phenyl)carbamate] | 0.05 | 3.44
O=C(Cc1cnco1)NCc1ccc(NC(=O)OCc2ccc(Cl)cc2)cc1 [Compound 311, (4-chlorophenyl)methyl N-(4-{[2-(1,3-oxazol-5-yl)acetamido]methyl}phenyl)carbamate] | 5.40 | 26.8
CN(C1COC1)S(=O)(=O)c1ccc(NC(=O)OCc2ccc(Cl)cc2)cc1 [Compound 352, 4-chlorobenzyl (4-(N-methyl-N-(oxetan-3-yl)sulfamoyl)phenyl)carbamate] | 22.88 | 46.3
O=C(Nc1ccc(CNC(=O)c2ccc(C(F)F)nc2)cc1)OCc1ccc(Cl)cc1 [Compound 185, (4-chlorophenyl)methyl N-[4-({[6-(difluoromethyl)pyridin-3-yl]formamido}methyl)phenyl]carbamate] | 1.59 | 2.04
COC1CCN(C(=O)N(C)Cc2ccc(NC(=O)OCc3ccc(Cl)cc3)cc2)CC1 [Compound 42, 4-chlorobenzyl (4-((4-methoxy-N-methylpiperidine-1-carboxamido)methyl)phenyl)carbamate] | 0.44 | 5.66
C[C@H](NC(=O)c1ocnc1C1CC1)c1ccc(NC(=O)OCc2ccc(Cl)cc2)cc1 [Compound 290, (4-chlorophenyl)methyl N-{4-[(1S)-1-[(4-cyclopropyl-1,3-oxazol-5-yl)formamido]ethyl]phenyl}carbamate] | 3.95 | 16.9
CN(Cc1ccc(NC(=O)OCc2ccc(Cl)cc2)cc1)C(=O)c1cn[nH]c1F [Compound 69, (4-chlorophenyl)methyl N-(4-{[1-(3-fluoro-2H-pyrazol-4-yl)-N-methylformamido]methyl}phenyl)carbamate] | 0.59 | 3.07
CC(=O)N1CC2(CC(c3ccc(NC(=O)OCc4cnco4)cc3)C2)C1 [Compound 358, oxazol-5-ylmethyl (4-(2-acetyl-2-azaspiro[3.3]heptan-6-yl)phenyl)carbamate] | 0.25 | 28.9
O=C(Nc1ccc(CC2CCN(C(=O)C3CCC3)CC2)cc1)OCc1cnco1 [Compound 469, oxazol-5-ylmethyl (4-((1-(cyclobutanecarbonyl)piperidin-4-yl)methyl)phenyl)carbamate] | 0.24 | 26.1
CC(=O)N1CCC(OCc2ccc(NC(=O)OCc3ccc(Cl)cc3)cc2)CC1 [Compound 93, 4-chlorobenzyl (4-(((1-acetylpiperidin-4-yl)oxy)methyl)phenyl)carbamate] | 0.75 | 6.8
CC1(C)CCN(Cc2ccc(NC(=O)OCc3ccc(Cl)cc3)cc2)C1=O [Compound 123, (4-chlorophenyl)methyl N-{4-[(3,3-dimethyl-2-oxopyrrolidin-1-yl)methyl]phenyl}carbamate] | 0.98 | 5.01
Cc1nc(C)c(C(=O)NCc2ccc(NC(=O)OCc3ccc(Cl)cc3)cc2)o1 [Compound 211, (4-chlorophenyl)methyl N-(4-{[(2,4-dimethyl-1,3-oxazol-5-yl)formamido]methyl}phenyl)carbamate] | 1.91 | 10.6
Cn1nccc1Cc1ccc(NC(=O)OCc2ccc(Cl)cc2)cc1 [Compound 314, 4-chlorobenzyl (4-((1-methyl-1H-pyrazol-5-yl)methyl)phenyl)carbamate] | 5.75 | 38.3

Next, values leading:

AC1.4 Human [µM] | EC50 [µM] | Structure (SMILES)
1.23 | 11.5 | COC(=O)N1CCC(c2ccc(NC(=O)OCc3cnco3)cc2)CC1 [Compound 148, methyl 4-(4-(((oxazol-5-ylmethoxy)carbonyl)amino)phenyl)piperidine-1-carboxylate]
1.36 | 4.5 | COc1ncc(C(=O)NCc2ccc(NC(=O)OCc3ccc(Cl)cc3)cc2)cn1 [Compound 162, (4-chlorophenyl)methyl N-(4-{[(2-methoxypyrimidin-5-yl)formamido]methyl}phenyl)carbamate]
0.17 | 10.7 | O=C(Nc1ccc(CC2CCN(C3COC3)C3(CC3)C2)cc1)OCc1cnco1 (stereo not shown) [Compound 441, oxazol-5-ylmethyl (4-((4-(oxetan-3-yl)-4-azaspiro[2.5]octan-7-yl)methyl)phenyl)carbamate]
0.76 | 23.6 | C[C@H](NC(=O)C1CCC(F)(F)C1)c1ccc(NC(=O)OCc2cnco2)cc1 (stereo partly drawn) [Compound 97, 1,3-oxazol-5-ylmethyl N-{4-[(1S)-1-[(3,3-difluorocyclopentyl)formamido]ethyl]phenyl}carbamate]
3.78 | 9.55 | O=C(Nc1ccc(CNC(=O)C2CCOCC2)cc1)OCc1ccc(Cl)cc1 [Compound 285, (4-chlorophenyl)methyl N-{4-[(oxan-4-ylformamido)methyl]phenyl}carbamate]
1.47 | 28 | COc1ccc(COC(=O)Nc2ccc(CN3CCOCC3=O)cc2)cc1 [Compound 174, (4-methoxyphenyl)methyl N-{4-[(3-oxomorpholin-4-yl)methyl]phenyl}carbamate]
1.32 | 1.27 | COc1ccc(C(=O)NCc2ccc(NC(=O)OCc3ccc(Cl)cc3)cc2)cn1 [Compound 158, (4-chlorophenyl)methyl N-(4-{[(6-methoxypyridin-3-yl)formamido]methyl}phenyl)carbamate]
7.41 | 13.3 | Cc1ccc(CNC(=O)Cc2ccc(NC(=O)OCc3ccc(Cl)cc3)cc2)cn1 [Compound 323, (4-chlorophenyl)methyl N-[4-({[(6-methylpyridin-3-yl)methyl]carbamoyl}methyl)phenyl]carbamate]
4.81 | 26.8 | CC(C)n1nccc1C(=O)NCc1ccc(NC(=O)OCc2ccc(Cl)cc2)cc1 [Compound 301, (4-chlorophenyl)methyl N-(4-{[(2-isopropylpyrazol-3-yl)formamido]methyl}phenyl)carbamate]
4.95 | 22.9 | O=C(Nc1ccc(CNC(=O)c2ccc(F)cn2)cc1)OCc1ccc(Cl)cc1 [Compound 305, (4-chlorophenyl)methyl N-(4-{[(5-fluoropyridin-2-yl)formamido]methyl}phenyl)carbamate]
0.11 | 5.63 | CC(=O)N1CC2(CC(Cc3ccc(NC(=O)OCc4cnco4)cc3F)C2)C1 [Compound 472, oxazol-5-ylmethyl (4-((2-acetyl-2-azaspiro[3.3]heptan-6-yl)methyl)-3-fluorophenyl)carbamate]

Reference: patent publication US20240279215A1 (Cytokinetics, Incorporated, priority 2022, published 2024)
